The record followed here is patent US20230323466A1, “DETERMINING CANCER RESPONSIVENESS TO TREATMENT” (Queensland University of Technology, priority 2020, published 2023).

A word on the IC50: it is the concentration needed to halve the response being measured.

Experiment [1] deals with NSCLC cells. Description: Cell death with cisplatin and/or BI 2536 in control versus CDCA3 depleted NSCLC cells (FIG. 9B). The format is cell-based. As to conditions: monotherapy.
For experiment [2], the system named is control and CDCA3-depleted cells. Description: Mitotic entry and recovery from cisplatin-induced G2 checkpoint, flow cytometry of Ser-10 phosphorylated histone H3 (FIG. 2C). It is filed as cell-based. As to conditions: after cisplatin-induced G2 checkpoint; both control and CDCA3-depleted cells. An excerpt:
FIG. 2. (A) Undamaged cells depleted of CDCA3 progress to mitosis slower than control cells or cells complemented with siRNA resistant CDCA3. (B) Cisplatin treated cells and depleted of CDCA3 are unable to recover from cell cycle arrest. (C) Cells treated with Cisplatin and then a PLK1 inhibitor are unable to recover from cell cycle arrest.
As this protein is reported to regulate cell proliferation (as confirmed by data in FIG. 7), the present inventors investigated its potential role in cell cycle progression from G2 into mitosis. To examine cell cycle progression, control cells, CDCA3-depleted cells or depleted cells ectopically expressing siRNA resistant CDCA3-FLAG were synchronized at the G1/S cell cycle boundary by a double thymidine block and released for seven hours (˜G2 phase). At this time cells were treated with or without cisplatin for 3.5 h and released into nocodazole containing media to capture cells in mitosis. Mitotic cells were determined by flow cytometry analysis of cells stained for Ser-10 phosphorylated histone H3. In undamaged cells, CDCA3 depletion slowed the progression of cells from G2 into mitosis (FIG. 2A). However, in cisplatin treated cells, CDCA3 depletion abolished mitotic progression with an inability to recover from G2 cell cycle arrest (FIG. 2B). […]

The subject of the next experiment is PLK1. Description: Mitotic index (H3S10ph) in cells expressing wildtype or T210D PLK1 (FIG. 4D). The format is cell-based. The settings on record: dose dependent.
Another experiment relates to CDCA3 and PLK1. Description: Immunoprecipitation of CDCA3 with PBD of PLK1 under CDK1 inhibition (FIG. 5E). As to conditions: inhibition of CDK1 to block CDCA3 phosphorylation. The format is cell-based. An excerpt:
FIG. 5. (A) PLK1 schematic listing kinase domain and polo-box domain (PBD). (B) CDCA3 immunoprecipitates with the PBD of PLK1 irrespective of the phospho-binding mutant (H538 and K540 each mutated to alanine residues). (C) CDCA3 is phosphorylated by CDK1-cyclin B1 causing a large molecular weight shift measured by SDS-PAGE. (D) Mutating each of the five CDK1-cyclin B1 phosphorylation sites within CDCA3 enhances binding to PLK1. (E) Inhibition of CDK1 with RO3306 enhances immunoprecipitation of CDCA3 with the PBD domain of PLK1. (F) Unmodified recombinant CDCA3 binds to recombinant Aurora A and PLK1. CDCA3 pre-phosphorylated by CDK1-cyclin B1 binds markedly less to PLK1 than unmodified CDCA3. (G) Recombinant unmodified CDCA3 but not phosphorylated CDCA3 enhances the in vitro activation and phosphorylation of PLK1 by Aurora A.
The present inventors next examined the mechanism regulating the association between CDCA3 and PLK1. The structure of PLK1 consists of an N-terminal kinase domain and a […] polo-box domain (PBD; FIG. 5A). Classically, the PBD binds phosphorylated substrates requiring the residues His538 and Lys540. Using immunoprecipitation analysis of lysates from cells ectopically expressing CDCA3 and the PBD of PLK1, it was identified that CDCA3 associates with the PLK1 PBD independent of residues His538 and Lys540 (FIG. 5B). […]

Experiment [3] concerns NSCLC cells. Description: Cisplatin IC50 in CDCA3-depleted versus control NSCLC cells (FIG. 8). The format is cell-based. An excerpt: FIG. 8. CDCA3-depletion reduces cisplatin IC50 values ˜2-4 fold versus control NSCLC cells but not non-tumorigenic lung epithelial HBEC cells, indicating increased sensitivity to cisplatin in NSCLC in vitro.
To investigate the diagnostic potential for CDCA3, the present inventors stratified the UT Lung SPORE cohort data based on CDCA3 expression (CDCA3low=below median, CDCA3high=above median). In this trial, patients undergoing curative resection were either observed only (OBS) or received adjunct chemotherapy (ACT).

The test system of another experiment is H1975 cells. Description: Cell viability assay (CellTitre-Glo 2.0), H1975. It is filed as cell-based. As to conditions: Homo sapiens, NCI-H1975, 72 h. The protocol: (§1) All NSCLC cell lines were obtained from the American Type Culture Collection (ATCC) except for PC-9 cell line which was sourced from the European Collection of Cell Cultures (ECACC). Cells were grown in RPMI-1640-medium containing L-glutamine (Life Technologies) and 10% foetal bovine serum (FBS, Sigma Aldrich). […] All cell lines were cultured at 37° C. in a humidified 5% CO2 incubator and routinely tested for mycoplasma contamination. Transfection of CDCA3-FLAG expression construct was performed using the FuGene HD transfection reagent (Promega Corporation).
(§2) Cells were seeded into a white-walled, glass-bottomed 384-well plate (Nunc) at a density of 1x10^3 cells per well. […] Cell viability was determined using CellTitre-Glo 2.0 (Promega Corporation) according to the manufacturer's instructions. Luminescence was scanned and analysed on the FLUOstar Omega Microplate Reader (BMG Labtech). Data was normalised to untreated controls and dose response curves and drug potency values generated using GraphPad Prism V9 software.
(§3) The present inventors evaluated TCGA datasets and correlated relative CDCA3 expression against available WikiPathways (2) of known measures of TKI resistance. […] Relative CDCA3 protein levels were correlated with the TKI potency values.

A further experiment relates to H1650 cells. Description: Cell viability assay (CellTitre-Glo 2.0), H1650. The format is cell-based. As to conditions: relative to other cell lines. How it is done:
as §1, §2, §3

The test system of a further experiment is HCC827 cells. The protocol:
as §1, §2
(§4) The present inventors next sought to assess this possibility in in vitro models of acquired TKI resistance. […] Cells not exposed to TKI were also maintained in culture for the same period, hereafter referred to as the parental cells.

The subject of a further experiment is PC-9 cells. It is filed as cell-based. The settings on record: for effect of ectopic CDCA3 expression on sensitivity: PC-9 parental cells; for enhancement of potency by ectopic CDCA3 expression: PC-9 resistant cells. How it is done:
as §1, §2, §4

The next experiment relates to CDCA3. Description: CDCA3 levels after TKI treatment of EGFR mut NSCLC cell lines (FIG. 12). It is filed as cell-based. As to conditions: H1975 cells (L858R, T790M).

On to `CC[C@@H]1C(=O)N(C)c2cnc(Nc3ccc(C(=O)NC4CCN(C)CC4)cc3OC)nc2N1C1CCCC1` [BI 2536], for which the figures for the cell death with NSCLC cells [1] (CDCA3 depleted cells) and with NSCLC cells [1] (control cells) were roughly 13% and roughly 30%, respectively. Besides, the mitotic entry result in [2] is listed as “blocked mitotic entry”. For the same molecule, the “mitotic entry (mitotic index)” value with PLK1 is “reduced”.

For the molecule `O=C1NC(=NCc2cccs2)S/C1=C\c1ccc2ncccc2c1` [R03306], the “association between CDCA3 and PLK1” value with CDCA3 and PLK1 is “increase”.

Regarding `N.N.[Cl][Pt][Cl]` [cisplatin], the “reduction of cisplatin IC50 values by CDCA3-depletion” value with NSCLC cells [3] is 2-4 fold.

Consider `C#Cc1cccc(Nc2ncnc3cc(OCCOC)c(OCCOC)cc23)c1` [erlotinib], for which half-maximal inhibition with H1975 cells (IC50) required 66.6 µM. Also, in the experiment with H1650 cells, the sensitivity result is reported as “insensitive”. Besides, the “effect of ectopic CDCA3 expression on sensitivity” value (“effect of ectopic CDCA3 expression” for short) in the experiment with HCC827 cells is reported as “did not impact”. Moreover, in the experiment on PC-9 cells, the “effect of ectopic CDCA3 expression” value is “did not impact” and the “enhancement of potency by ectopic CDCA3 expression” value (“enhancement of potency” for short) is listed as roughly 57 fold.

Regarding `C=CC(=O)Nc1cc(Nc2nccc(-c3cn(C)c4ccccc34)n2)c(OC)cc1N(C)CCN(C)C` [osimertinib], the CDCA3 levels result with CDCA3 is on record as “reduced”. In the experiment on HCC827 cells, the “effect of ectopic CDCA3 expression” value is recorded as “did not impact”, the “enhancement of potency” value was roughly 121 fold and the “increase in IC50 values versus parental” value is reported as roughly 385 fold. Also, in the experiment on PC-9 cells, the “effect of ectopic CDCA3 expression” value is recorded as “did not impact” and the “enhancement of potency” value stood at 54 fold. Further, the “increase in IC50 values versus parental” value with PC-9 cells (erlotinib resistant PC-9 versus parental PC-9) is recorded as ~1,470 fold.
